Test results reported in US12171230B2, “Herbicidal compositions” (Bayer Aktiengesellschaft, priority 2018, dated 2024).
Values joined by “and” are separate entries in the source; they are usually repeats but may differ in a detail not shown here. Equal values may be shown once.

Assays:
Type in all cases: in vivo
Echinochloa crus-galli = test: Post-emergence herbicidal action against Echinochloa crus-galli; conditions: 100 g a.i./ ha, post-emergence
In short: (§1)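 Visual scoring against untreated controls, made 3 to 4 weeks after treatment, gives the % efficacy. Plants grown in pots of sandy loam were sprayed on green parts at the three-leaf stage with formulated compositions at 300 to 800 l/ha water. Combination efficacy above the Colby expected value indicates synergism.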

[1] = test system: Lolium rigidum (resistant biotype); test: Post-emergence herbicidal action against Lolium rigidum (resistant biotype)
In short: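 Each treatment was applied at a rate expressed as g of 100% active compound per ha, and the effect was scored a given number of days later (DAT). Reference values for combinations were calculated two ways: E^A, the sum of individual effects, and E^C, Colby's expected value.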

Chenopodium album = test: Post-emergence herbicidal action against Chenopodium album
Description: (§2) When the observed efficacies exceed the formal sum total of the values of the tests with individual applications, they also exceed the expected value according to Colby, which is calculated using the formula below and is likewise regarded as an indication of synergism (cf. S. R. Colby; in Weeds 15 (1967) p. 20 to 22): E^C=A+B−([…])
(§3) Here: • A=efficacy of the active compound (A) in % at an application rate of a g a.i./ha; • B=efficacy of the active compound (B) in % at an application rate of b g a.i./ha; • E^C=expected value of the effect of the combination (A)+(B) in % at the combined application rate a+b g a.i./ha.
(§4) Seeds or rhizome pieces of mono- and dicotyledonous weeds are placed in sandy loam in pots, covered with soil and grown in a greenhouse under good growth conditions (temperature, air humidity, water supply). Three weeks after sowing, the test plants were treated at the three-leaf stage with the compositions according to the invention. The compositions according to the invention formulated as spray powders or as emulsion concentrates were sprayed onto the green plant parts in various dosages with an application rate of 300 to 800 l/ha of water (equivalent). After the test plants have been left to stand in the greenhouse under optimal growth conditions for about 3 to 4 weeks, the action of the preparations is scored visually in comparison to untreated controls. The compositions according to the invention also have good post-emergence herbicidal activity against a broad spectrum of economically important gramineous and broadleaf weeds.

Sorghum halepense = test: Post-emergence herbicidal action against Sorghum halepense; conditions: 1.7 g of a.i./ha
In short: as §1

Bidens pilosa = test: Post-emergence herbicidal action against Bidens pilosa
In short: as §1

Brachiaria decumbens = test: Post-emergence herbicidal action against Brachiaria decumbens; conditions: g of a.i./ha: 200, 100, 100 + 200
Description: (§5) The following abbreviations are used in the description and the tables that follow: • g of a.i./ha=grams of active substance (active ingredient) (=100% active compound) per hectare; • The sum total of the effects of the individual applications is reported under E^A; • expected values according to Colby are each reported under E^C.
(§6) The rating period is reported in days after application (DAT).

Setaria viridis = test: Post-emergence herbicidal action against Setaria viridis; conditions: 1.7 g of a.i./ha
Description: as §2, §3, §4

Veronica hederifolia = test: Post-emergence herbicidal action against Veronica hederifolia
Description: as §5, §6

Matricaria inodora = test: Post-emergence herbicidal action against Matricaria inodora; conditions: for Herbicidal action in [%] 28 DAT against Matricaria inodora: post-emergence; for Herbicidal action: 1 g a.i./ha

C=C[C@]1(C(=O)N[C@H]2CO[C@@H](C(=O)OC)C2)CC(c2cc(F)cc(F)c2)=NO1 (relative stereo) [Compound A3, methyl rel-(2R,4R)-4-[[(5S)-3-(3,5-difluorophenyl)-5-vinyl-4H-isoxazole-5-carbonyl]amino]tetrahydrofuran-2-carboxylate]
Herbicidal action 37 DAT [%] against Echinochloa crus-galli (Echinochloa crus-galli): 93% | Herbicidal action 14 DAT against Lolium rigidum (resistant biotype) ([1]; 1 g of a.i./ha): 15% and 30% | Herbicidal action 28 DAT against Lolium rigidum (resistant biotype) ([1]; 1 g of a.i./ha): 0% | Herbicidal action 14 DAT against Lolium rigidum (resistant biotype) ([1]; 4 g of a.i./ha): 40% and 60% | Herbicidal action in [%] 14 DAT against Lolium rigidum (resistant biotype) ([1]; 1 g of a.i./ha): 30% | Herbicidal action in [%] 14 DAT against Lolium rigidum (resistant biotype) ([1]; 4 g of a.i./ha): 60% | Herbicidal action 28 DAT against Lolium rigidum (resistant biotype) ([1]; 16 g of a.i./ha): 80% | Herbicidal action in [%] 28 DAT against Lolium rigidum (resistant biotype) ([1]; 1 g of a.i./ha): 0% | Herbicidal action in [%] 28 DAT against Lolium rigidum (resistant biotype) ([1]; 4 g of a.i./ha): 40% | Herbicidal action in [%] 28 DAT against Lolium rigidum (resistant biotype) ([1]; 16 g of a.i./ha): 80% | Herbicidal action 28 DAT against Lolium rigidum (resistant biotype) ([1]; (Z61) post-emergence, g of a.i./ha: 4, 1, 270, 90, 4 + 270, 1 + 90, 1 g of a.i./ha): 0% | Herbicidal action 28 DAT against Lolium rigidum (resistant biotype) ([1]; (Z61) post-emergence, g of a.i./ha: 4, 1, 270, 90, 4 + 270, 1 + 90, 4 g of a.i./ha): 10% | Herbicidal action 27 DAT [%] against Chenopodium album (Chenopodium album; 100 g of a.i./ha): 85% | Herbicidal action 27 DAT against Chenopodium album (Chenopodium album; g of a.i./ha: 180, 100, 100 + 180): 85% | Herbicidal action 21 DAT [%] against Sorghum halepense (Sorghum halepense): 40% | Herbicidal action 21 DAT against Sorghum halepense (Sorghum halepense): 40% | Herbicidal action 21 DAT [%] against Sorghum halepense (Sorghum halepense; post-emergence): 40% | Herbicidal action 21 DAT [%] against Bidens pilosa (Bidens pilosa; 1.7 g of a.i./ha): 10% and 0% | Herbicidal action 21 DAT against Bidens pilosa (Bidens pilosa; 1.7 g of a.i./ha): 10% | Herbicidal action 21 DAT [%] against Bidens pilosa (Bidens pilosa; 1.7 g of a.i./ha, post-emergence, block with (B1.14) Tembotrione): 10% | Herbicidal action 21 DAT [%] against Bidens pilosa (Bidens pilosa; 1.7 g of a.i./ha, post-emergence, block with (B1.7) Mesotrione): 0% | Herbicidal action 21 DAT [%] against Bidens pilosa (Bidens pilosa; 5 g of a.i./ha): 10% | Herbicidal action 21 DAT against Bidens pilosa (Bidens pilosa; 5 g of a.i./ha): 10% | Herbicidal action 21 DAT [%] against Bidens pilosa (Bidens pilosa; 5 g of a.i./ha, post-emergence, block with (B1.14) Tembotrione): 10% | Herbicidal action 21 DAT [%] against Bidens pilosa (Bidens pilosa; 5 g of a.i./ha, post-emergence, block with (B1.7) Mesotrione): 10% | Herbicidal action 21 DAT [%] against Bidens pilosa (Bidens pilosa; 15 g of a.i./ha): 50% | Herbicidal action 21 DAT [%] against Bidens pilosa (Bidens pilosa; 15 g of a.i./ha, post-emergence, block with (B1.7) Mesotrione): 25% | Herbicidal action (Bidens pilosa; 21 DAT, 1.7 g a.i./ha): 10% | Herbicidal action (Bidens pilosa; 21 DAT, 5 g a.i./ha): 10% | Herbicidal action 21 DAT [%] against Bidens pilosa (Bidens pilosa; post-emergence, 21 DAT, 1.7 g of a.i./ha): 0% | Herbicidal action 21 DAT [%] against Bidens pilosa (Bidens pilosa; post-emergence, 21 DAT, 5 g of a.i./ha): 10% | Herbicidal action 21 DAT [%] against Bidens pilosa (Bidens pilosa; post-emergence, 21 DAT, 15 g of a.i./ha): 25% | Herbicidal action 28 DAT against Brachiaria decumbens (Brachiaria decumbens): 87% | Herbicidal action 21 DAT against Setaria viridis (Setaria viridis): 70% | Herbicidal action 21 DAT [%] against Setaria viridis (Setaria viridis; post-emergence): 70% | Herbicidal action in [%] 14 DAT against Veronica hederifolia (Veronica hederifolia; 1 g of a.i./ha): 10% | Herbicidal action in [%] 14 DAT against Veronica hederifolia (Veronica hederifolia; 4 g of a.i./ha): 30% | Herbicidal action 14 DAT against Veronica hederifolia (Veronica hederifolia; 16 g of a.i./ha): 40% | Herbicidal action 14 DAT against Veronica hederifolia (Veronica hederifolia; g of a.i./ha: 16, 270, 16 + 270): 40% | Herbicidal action 14 DAT against Matricaria inodora (Matricaria inodora; 1 g of a.i./ha): 0% | Herbicidal action 28 DAT against Matricaria inodora (Matricaria inodora; 1 g of a.i./ha): 0% | Herbicidal action in [%] 28 DAT against Matricaria inodora (Matricaria inodora; 1 g of a.i./ha): 0% | Herbicidal action 14 DAT against Matricaria inodora (Matricaria inodora; 4 g of a.i./ha): 30% | Herbicidal action 28 DAT against Matricaria inodora (Matricaria inodora; 4 g of a.i./ha): 30% | Herbicidal action in [%] 14 DAT against Matricaria inodora (Matricaria inodora; 4 g of a.i./ha): 20% | Herbicidal action in [%] 28 DAT against Matricaria inodora (Matricaria inodora; 4 g of a.i./ha): 0% | Herbicidal action (Matricaria inodora; 14 DAT): 0% | Herbicidal action against Matricaria inodora (Matricaria inodora; 14 DAT, 4 g of a.i./ha): 20% | Herbicidal action against Matricaria inodora (Matricaria inodora; 14 DAT, 16 g of a.i./ha): 20% | Herbicidal action 14 DAT against Matricaria inodora (Matricaria inodora; 16 g of a.i./ha): 20% | Herbicidal action 28 DAT against Matricaria inodora (Matricaria inodora; 16 g of a.i./ha): 15% | Herbicidal action in [%] 14 DAT against Matricaria inodora (Matricaria inodora; 16 g of a.i./ha): 20% and 40% | Herbicidal action (Matricaria inodora; 28 DAT): 0% | Herbicidal action against Matricaria inodora (Matricaria inodora; 28 DAT, 1 g of a.i./ha): 15% | Herbicidal action against Matricaria inodora (Matricaria inodora; 28 DAT, 16 g of a.i./ha): 15% | Herbicidal action 14 DAT against Matricaria inodora (Matricaria inodora; (Z61) post-emergence, g of a.i./ha: 1, 270, 30, 1 + 270, 1 + 30): 0%
